Assays:
[1] = target: GDP-bound NRAS wild-type protein (Homo sapiens, UniProt P01111); assay: Binding to NRAS by surface plasmon resonance (SPR), Single Cycle Kinetics; conditions: KD ratio NRAS/KRAS, class symbols
[2] = target: GDP-bound HRAS wild-type protein (Homo sapiens, UniProt P01112); assay: Binding to HRAS by surface plasmon resonance (SPR), Single Cycle Kinetics; conditions: KD ratio HRAS/KRAS, class symbols
Sequence of GDP-bound HRAS wild-type protein (P01112 whole entry): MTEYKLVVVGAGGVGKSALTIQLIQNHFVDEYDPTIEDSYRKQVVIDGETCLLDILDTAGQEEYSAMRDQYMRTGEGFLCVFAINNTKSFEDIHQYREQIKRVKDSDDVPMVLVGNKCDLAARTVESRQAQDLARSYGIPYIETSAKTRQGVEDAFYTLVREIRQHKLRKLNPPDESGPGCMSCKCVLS

Sequence of GDP-bound NRAS wild-type protein (P01111 whole entry): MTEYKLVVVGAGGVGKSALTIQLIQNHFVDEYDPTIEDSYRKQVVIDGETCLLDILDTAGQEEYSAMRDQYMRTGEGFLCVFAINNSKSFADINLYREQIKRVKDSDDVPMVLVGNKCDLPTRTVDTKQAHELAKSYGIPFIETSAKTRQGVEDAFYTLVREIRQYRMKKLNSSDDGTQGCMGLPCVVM

Compound | NRAS/KRAS (ratio of KD value with respect to GDP-bound NRAS wild-type protein to KD value with respect to KRAS) [1] | HRAS/KRAS (ratio of KD value with respect to GDP-bound HRAS wild-type protein to KD value with respect to KRAS) [2]
CCC[C@H]1C(=O)N[C@@H]([C@@H](C)CC)C(=O)N(C)CC(=O)N(C)[C@H]2C/C=C\CCN(C2=O)[C@@H](Cc2ccc(C(F)F)cc2)C(=O)N(C)CC(=O)N[C@@H](CCc2ccc(Cl)c(Cl)c2)C(=O)N2C[C@H](OCC)C[C@H]2C(=O)NC2(CC(C)(C)C2)C(=O)N(C)[C@@H](C(CC)CC)C(=O)N(C)[C@H](C(=O)N(C)C)CC(=O)N1C [PP2531] | AA (a compound having 20 or more is denoted as AA) | A (a compound having 10 or more and less than 20 is denoted as A)
CCC[C@H]1C(=O)N[C@@H](CC(C)C)C(=O)N(C2CC2)CC(=O)N(C)[C@H]2C/C=C\CCN(C2=O)[C@@H](Cc2ccc(C)cc2)C(=O)N(C)CC(=O)N[C@@H](CCc2cc(F)c(C(F)(F)F)c(F)c2)C(=O)N2C[C@H](OCC)C[C@H]2C(=O)NC2(CCC2)C(=O)N(C)[C@@H](C2CCCC2)C(=O)N(C)[C@H](C(=O)N(C)C)CC(=O)N1C [PP2532] | A (a compound having 10 or more and less than 20 is denoted as A) | B (a compound having 3 or more and less than 10 is denoted as B)
CCC(CC)[C@H]1C(=O)N(C)[C@H](C(=O)N(C)C)CC(=O)N(C)[C@@H](COC)C(=O)N[C@@H]([C@@H](C)CC)C(=O)N(C)CC(=O)N(C)[C@H]2C/C=C\CCN(C2=O)[C@@H](Cc2ccc(C(F)(F)F)cc2)C(=O)N(C)CC(=O)N[C@@H](CCc2ccc(Cl)c(Cl)c2)C(=O)N2C[C@H](OC(C)C)C[C@H]2C(=O)NC2(CC(C)(C)C2)C(=O)N1C [PP2533] | AA (a compound having 20 or more is denoted as AA) | A (a compound having 10 or more and less than 20 is denoted as A)
CCC[C@H]1C(=O)N[C@@H](CC(C)C)C(=O)N(C2CC2)CC(=O)N(C)[C@H]2C/C=C\CCN(C2=O)[C@@H](Cc2ccc(C)cc2)C(=O)N(C)CC(=O)N[C@@H](CCc2ccc(C(F)(F)F)c(OC)c2)C(=O)N2C[C@H](OCC)C[C@H]2C(=O)NC2(CCC2)C(=O)N(C)[C@@H](C2CCCC2)C(=O)N(C)[C@H](C(=O)N(C)C)CC(=O)N1C [PP2534] | A (a compound having 10 or more and less than 20 is denoted as A) | B (a compound having 3 or more and less than 10 is denoted as B)
CCC[C@H]1C(=O)N[C@@H]([C@@H](C)CC)C(=O)N(C)CC(=O)N(C)[C@H]2C/C=C\CCN(C2=O)[C@@H](Cc2ccc(C(F)F)cc2)C(=O)N(C)CC(=O)N[C@@H](CCc2ccc(Cl)c(Cl)c2)C(=O)N2C[C@H](OC(C)C)C[C@H]2C(=O)NC2(CC(C)(C)C2)C(=O)N(C)[C@@H](C(CC)CC)C(=O)N(C)[C@H](C(=O)N(C)C)CC(=O)N1C [PP2535] | AA (a compound having 20 or more is denoted as AA) | A (a compound having 10 or more and less than 20 is denoted as A)
C#CCN1CC(=O)N(C)[C@H]2C/C=C\CCN(C2=O)[C@@H](Cc2ccc(C)cc2)C(=O)N(C)CC(=O)N[C@@H](CCc2cc(F)c(C(F)(F)F)c(F)c2)C(=O)N2C[C@H](OCC)C[C@H]2C(=O)NC2(CCC2)C(=O)N(C)[C@@H](C2CCCC2)C(=O)N(C)[C@H](C(=O)N(C)C)CC(=O)N(C)[C@@H](CCC)C(=O)N[C@@H](CC(C)C)C1=O [PP2536] | A (a compound having 10 or more and less than 20 is denoted as A) | B (a compound having 3 or more and less than 10 is denoted as B)
CCC[C@H]1C(=O)N[C@@H]([C@@H](C)CC)C(=O)N(C)CC(=O)N(C)[C@H]2C/C=C\CCN(C2=O)[C@@H](Cc2ccc(C)cc2)C(=O)N(C)CC(=O)N[C@@H](CCc2ccc(Cl)c(Cl)c2)C(=O)N2C[C@H](OC(C)C)C[C@H]2C(=O)NC2(CC(C)(C)C2)C(=O)N(C)[C@@H](C(CC)CC)C(=O)N(C)[C@H](C(=O)N(C)C)CC(=O)N1C [PP2537] | AA (a compound having 20 or more is denoted as AA) | A (a compound having 10 or more and less than 20 is denoted as A)
CCC[C@H]1C(=O)N[C@@H](CC(C)C)C(=O)N(CC)CC(=O)N(C)[C@H]2C/C=C\CCN(C2=O)[C@@H](Cc2ccc(C)cc2)C(=O)N(C)CC(=O)N[C@@H](CCc2cc(F)c(C(F)(F)F)c(F)c2)C(=O)N2C[C@H](OCC)C[C@H]2C(=O)NC2(CCC2)C(=O)N(C)[C@@H](C2CCCC2)C(=O)N(C)[C@H](C(=O)N(C)C)CC(=O)N1C [PP2539] | A (a compound having 10 or more and less than 20 is denoted as A) | B (a compound having 3 or more and less than 10 is denoted as B)
CCC[C@H]1C(=O)N[C@@H](CC(C)C)C(=O)N(CC)CC(=O)N(C)[C@H]2C/C=C\CCN(C2=O)[C@@H](Cc2ccc(C)cc2)C(=O)N(C)CC(=O)N[C@@H](CCc2ccc(C(F)(F)F)c(OC)c2)C(=O)N2C[C@H](OCC)C[C@H]2C(=O)NC2(CCC2)C(=O)N(C)[C@@H](C2CCCC2)C(=O)N(C)[C@H](C(=O)N(C)C)CC(=O)N1C [PP2540] | A (a compound having 10 or more and less than 20 is denoted as A) | B (a compound having 3 or more and less than 10 is denoted as B)
CCC[C@H]1C(=O)N[C@@H](CC(C)C)C(=O)N(CCOC)CC(=O)N(C)[C@H]2C/C=C\CCN(C2=O)[C@@H](Cc2ccc(C)cc2)C(=O)N(C)CC(=O)N[C@@H](CCc2cc(F)c(C(F)(F)F)c(F)c2)C(=O)N2C[C@H](OCC)C[C@H]2C(=O)NC2(CCC2)C(=O)N(C)[C@@H](C2CCCC2)C(=O)N(C)[C@H](C(=O)N(C)C)CC(=O)N1C [PP2541] | A (a compound having 10 or more and less than 20 is denoted as A) | B (a compound having 3 or more and less than 10 is denoted as B)
CCC[C@H]1C(=O)N[C@@H](CC(C)C)C(=O)N(CCOC)CC(=O)N(C)[C@H]2C/C=C\CCN(C2=O)[C@@H](Cc2ccc(C)cc2)C(=O)N(C)CC(=O)N[C@@H](CCc2ccc(C(F)(F)F)c(OC)c2)C(=O)N2C[C@H](OCC)C[C@H]2C(=O)NC2(CCC2)C(=O)N(C)[C@@H](C2CCCC2)C(=O)N(C)[C@H](C(=O)N(C)C)CC(=O)N1C [PP2542] | B (a compound having 3 or more and less than 10 is denoted as B) | B (a compound having 3 or more and less than 10 is denoted as B)
CCC[C@H]1C(=O)N[C@@H](CC(C)C)C(=O)N(CC)CC(=O)N(C)[C@H]2C/C=C\CCN(C2=O)[C@@H](Cc2ccc(C)cc2)C(=O)N(C)CC(=O)N[C@@H](CCc2ccc(C(F)(F)F)c(Cl)c2)C(=O)N2C[C@H](OCC)C[C@H]2C(=O)NC2(CCC2)C(=O)N(C)[C@@H](C2CCCC2)C(=O)N(C)[C@H](C(=O)N(C)C)CC(=O)N1C [PP2545] | A (a compound having 10 or more and less than 20 is denoted as A) | A (a compound having 10 or more and less than 20 is denoted as A)
